Entries after “also recorded” stand apart in the source; their conditions may differ.
Key:
[1] = test system: lipid droplets (LD) in rat articular chondrocytes; assay: Lipid droplet staining (Nile red, BODIPY), confocal microscopy and quantification; assay type: cell-based
Method: Rat articular chondrocytes for primary culture were isolated from knee joint cartilage slices by enzymatic digestion for 1 h with 0.2% type II collagenase (381 units/mg) in DMEM. After the isolated cells were collected by brief centrifugation, they were resuspended in DMEM supplemented with 10% (v/v) FBS, […] streptomycin and 50 units/ml penicillin (Gibco). The cells were plated on culture dishes at a density of 5×10^4 cells/cm^2. The medium was replaced every 2 days, and they reached confluence after approximately 5 days in culture. In each experiment, the cells from three animals were pooled and analyzed three times. FFA were dissolved in absolute ethanol at a concentration of 500 mM and diluted to final concentrations of FFAs with the appropriate concentration of 1% (w/v) FFA-free BSA. Controls were incubated with equal concentrations of FFA-free BSA containing ethanol. […] Cells cultured on a coverslip were incubated with diluted Nile red or BODIPY 493/503. Some sections were double-labelled with TUNEL and BODIPY 493/503 and counterstained with Hoechst 33342. Fluorescence images were observed and analyzed using a Zeiss LSM 510 laser-scanning confocal microscope (Goettingen, Germany). Twenty cells from each experiment were observed and auantification of fluorescence intensity of the confocal images were obtained with the use of ImageJ software. Fluorescence intensity was expressed as AU.

[2] = test system: rat articular chondrocytes; assay: Cell viability assay (automated trypan blue exclusion); assay type: cell-based; settings: n=4
Method: Rat articular chondrocytes for primary culture were isolated from knee joint cartilage slices by enzymatic digestion for 1 h with 0.2% type II collagenase (381 units/mg) in DMEM. After the isolated cells were collected by brief centrifugation, they were resuspended in DMEM supplemented with 10% (v/v) FBS, […] streptomycin and 50 units/ml penicillin (Gibco). The cells were plated on culture dishes at a density of 5×10^4 cells/cm^2. The medium was replaced every 2 days, and they reached confluence after approximately 5 days in culture. In each experiment, the cells from three animals were pooled and analyzed three times.
FFA were dissolved in absolute ethanol at a concentration of 500 mM and diluted to final concentrations of FFAs with the appropriate concentration of 1% (w/v) FFA-free BSA. Controls were incubated with equal concentrations of FFA-free BSA containing ethanol. To examine the effect of several chemicals, cells were pretreated with 150 μg/mL DRB or 30 μM cilostazol for 24 h or 25 ng/ml TNF-α for 3 h before FFA treatment.
siRNA transfection or combination treatment with FFAs. Transfection of siRNA was performed with the use of siPORT Amine and Opti-MEM media. Cells grown to a confluence of 40% to 50% in six-well plates were transfected with 100 nM final siRNA concentration per well. Transfection mixture was added to each well, and incubation occurred for 4 h. Then 2 ml of growth medium was added, and cells were incubated for another 20 h. After siRNA transfection medium was removed, each well was washed in PBS solution. Cells were treated with FFAs for 24 hours.
Recombinant adenoviral STAMP2 was prepared as described previously34. Cells (1×10^7) were infected with recombinant adenoviral STAMP2 at multiplicities of infection (MOI) of 500, 1000 and 1500 to the medium.
An automated trypan blue exclusion assay was undertaken. Total cells and trypan bluestained (i.e., nonviable) cells were counted, and the percentage of nonviable cells was calculated using the Vi-Cell cell counter (Beckman Coulter, Miami, Fla., USA).

[3] = test system: rat articular chondrocytes; assay: Total cytosol FFA content measurement; assay type: cell-based
Method: Cell were collected after treatment with trypsin (0.2% trypsin, 0.02% EDTA and 0.2% glucose in PBS) and pelleted by centrifugation (200×g for 5 min at 4° C.). Cell pellet was resuspended in ice-cold hypotonic lysis medium containing 20 mM Tris-HCl, pH 7.4 and 1 mM EDTA. Cells were homogenized with a Dounce homogenizer and then centrifuged (800×g for 5 min at 4° C.). The post-nuclear supernatant fraction was ultra-centrifuged ([…] for 5 min at 4° C.) using Beckman Table-top ultracentrifuge. LD fraction with the distinct white band on the preparation was removed with a pipetman and LD-free cytosol was used for FFA measurement. Cytosol FFA levels were measured using a commercial free fatty acid quantification kit from Abcam (ab65341).

STAMP2 = assay: Western blot of STAMP2 protein in articular chondrocytes; assay type: cell-based, rat; settings: n=4
Method: (§1) Rat articular chondrocytes for primary culture were isolated from knee joint cartilage slices by enzymatic digestion for 1 h with 0.2% type II collagenase (381 units/mg) in DMEM. After the isolated cells were collected by brief centrifugation, they were resuspended in DMEM supplemented with 10% (v/v) FBS, […] streptomycin and 50 units/ml penicillin (Gibco). The cells were plated on culture dishes at a density of 5×10^4 cells/cm^2. The medium was replaced every 2 days, and they reached confluence after approximately 5 days in culture. In each experiment, the cells from three animals were pooled and analyzed three times. FFA were dissolved in absolute ethanol at a concentration of 500 mM and diluted to final concentrations of FFAs with the appropriate concentration of 1% (w/v) FFA-free BSA. Controls were incubated with equal concentrations of FFA-free BSA containing ethanol. […] Cell (2×10^6) were washed twice with ice-cold PBS. Cells were resuspended in lysis buffer [200 ll of icecold solubilizing buffer (300 mM NaCl, 50 mM Tris-Cl (pH 7.6), 0.5% Triton X-100, protease inhibitor cocktail)] and incubated at 4° C. for 30 min. The lysates were centrifuged at 14,000 rpm for 20 min at 4° C. The protein concentrations of the cell lysates were measured with the Bradford protein assay reagent (Bio-Rad). Then, 50 μg of proteins was loaded onto 15 SDS-PAGE. The separated proteins were transferred to nitrocellulose membranes (Amersham Pharmacia Biotech, Piscataway, N.J., USA) and probed with each antibody. Immunostaining with the antibodies was carried out using the Super Signal West Pico enhanced chemiluminescence substrate and detected with LAS-3000PLUS.

caspase-3 and -7 = assay: Western blot of apoptosis-related factors (caspase-3 and -7 activation); assay type: cell-based, rat; settings: 100 μM DRB with 1 mM oleate; n=4
Method: as §1, with “The lysates were centrifuged at 14,000 rpm for 20 min at 4° C.” left out, “Then, 50 μg of proteins was loaded onto 15 SDS-PAGE. The separated proteins were transferred to nitrocellulose membranes (Amersham Pharmacia Biotech, Piscataway, N.J., USA) and probed with each antibody.” left out

FSP27 = assay: Western blot of FSP27 protein in articular chondrocytes; assay type: cell-based, rat; settings: n=4
Method: as §1

[4] = test system: rat articular chondrocytes; assay: Phase contrast microscopy of oleate-induced cell death; assay type: cell-based; settings: 25 ng/ml TNF-α, 1.5 mM oleate; n=4

## OC[C@H]1O[C@@H](n2cnc3cc(Cl)c(Cl)cc32)[C@H](O)[C@@H]1O [DRB, 5,6-dichlorobenzimidazol riboside]
[1]; DRB in cells treated with 0.4 mM oleate and 0.6 mM palmitate
  LD accumulation: significantly reduced the LD accumulation
[1]; DRB pre-/co-treatment, 1 mM oleate
  LD size and LD accumulation: reversed oleate-induced LD enlargement; also recorded: reduces LD size and LD accumulation
[1]; co-treatment with DRB versus 1 mM oleate, n=4
  total LD volume: significantly decreased
[2]; 0.4 mM oleate with 0.6 or 1.6 mM palmitate
  influence on lipotoxicity of oleate/palmitate combination (viability): reciprocal influences on lipotoxicity
[3]; 1.0 mM oleate with DRB versus without
  FFA level in the cytosol: significantly increased the FFA level in the cytosol
[3]; cells treated with 0.6 mM palmitate and 0.4 mM oleate, n=4
  FFA level in the cytosol: significantly increased the FFA level in the cytosol
STAMP2; DRB
  expression level of STAMP2: decreased
caspase-3 and -7
  activation of caspase-7 and -3: activated caspase-7 and -3
FSP27; 100 μM DRB with 1 mM oleate
  level of FSP27 protein: decreased the levels of FSP27 protein
FSP27; DRB
  expression level of FSP27: decreased

## CCCCCCCCCCCCCCCCCC(=O)O [stearate, stearic acid]
[2]; FFA alone at 0.5 to 2 mM
  cell viability: significantly reduced cell viability
STAMP2; FFA at toxic concentrations
  expression level of STAMP2: reduced the expression level of STAMP2

## TNF-α
[4]
  effect on oleate-induced cell death (phase contrast microscopy): prevented oleate-induced cell death
[1]; TNF-α, 1.5 mM oleate
  effect on oleate-induced reduction of LD size and total LD volume: completely reversed the 1.5 mM oleate-induced reduction in total LD volume; also recorded: reversed 1.5 mM oleate-induced reduction of LD size and total LD volume
[2]; 25 ng/ml TNF-α, 1.5 mM oleate
  effect on oleate-induced cell death (viability): completely reversed 1.5 mM oleate-induced cell death; also recorded: prevented 1.5 mM oleate-induced cell death
STAMP2; 25 ng/ml TNF-α, 1.5 mM oleate
  effect on oleate-induced downregulation of STAMP2 protein: completely reversed the 1.5 mM oleate-induced downregulation of the expression level of STAMP2 protein; also recorded: reversed 1.5 mM oleate (0)-induced downregulation of STAMP2 protein

## zVAD-fmk
[2]; zVAD-fmk with 1.5 mM oleate
  effect on oleate-induced cell death (viability): significantly prevented 1.5 mM oleate-induced cell death
